Results as given in US5135935A, “Squalene synthetase inhibitors” (Merck & Co., Inc., priority 1991, dated 1992).

Target: T1, Squalene Synthetase (Rattus norvegicus, UniProt Q02769)
T1 construct: from tissue; host or cells: liver microsomes of male Charles River CD rats fed 0.1% lovastatin
T1 sequence (Q02769 1-416): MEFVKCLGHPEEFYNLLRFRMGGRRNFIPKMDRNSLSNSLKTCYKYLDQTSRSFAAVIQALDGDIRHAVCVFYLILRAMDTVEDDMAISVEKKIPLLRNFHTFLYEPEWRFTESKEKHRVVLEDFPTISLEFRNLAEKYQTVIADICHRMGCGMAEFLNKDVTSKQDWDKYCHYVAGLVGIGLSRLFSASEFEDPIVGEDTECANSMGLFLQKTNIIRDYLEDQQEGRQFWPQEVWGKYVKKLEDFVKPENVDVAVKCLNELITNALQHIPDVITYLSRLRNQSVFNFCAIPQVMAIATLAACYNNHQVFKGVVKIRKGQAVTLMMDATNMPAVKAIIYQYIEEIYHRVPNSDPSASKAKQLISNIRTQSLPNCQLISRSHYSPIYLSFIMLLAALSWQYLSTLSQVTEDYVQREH
Experiment: Squalene synthetase assay, rat liver microsomes, [4-14C]farnesyl pyrophosphate
Assay type: biochemical
Details: salt form as tabulated; for IC50: 30° C., 20 minutes; for inhibition at 0.3 µg/mL: conc. 0.3 μg/mL
Experimental: The intrinsic squalene synthetase inhibitory activity of representative compounds of this invention was measured by the standard in vitro protocol described below:
Male, Charles River CD rats (120 to 150 g) were fed a diet containing 0.1% lovastatin for 4 days. The livers from these rats were homogenized in 5 volumes (mL/g) of ice cold 50 mM HEPES (4-(2-hydroxyethyl)-1-piperazine-ethanesulfonic acid), 5 mM EDTA (ethylenediaminetetraacetic acid) pH 7.5 with a Potter-Elvehjem type tissue grinder. The homogenate was centrifuged twice at 20,000×g for 15 minutes at 4° C., discarding the pellet each time. The supernatant was then centrifuged at 100,000×g for 1 hour at 4° C. The resulting microsomal pellet was resuspended in a volume of the above homogenizing buffer equal to one-fifth the volume of the original homogenate. This microsomal preparation has a protein concentration of about 7 mg/mL. The microsomal suspensions were stored in aliquots at -70° C. Squalene synthetase activity in these aliquots is stable for at least several months.
Prenyl transferase was purified to use in the enzymatic synthesis of radiolabelled farnesyl pyrophosphate. Prenyl transferase was assayed by the method of Rilling (Methods in Enzymology 110, 125-129 (1985)) and a unit of activity is defined as the amount of enzyme that will produce 1 μmole of farnesyl pyrophosphate per minute at 30° C. in the standard assay.
The livers of 23 forty-day old male rats that had been fed 5% cholestyramine plus 0.1% lovastatin were homogenized in a Waring blender in 1 liter of 10 mM mercaptoethanol, 2 mM EDTA, 25 μM leupeptin, 0.005% phenylmethyl sulfonyl fluoride pH 7.0 containing 0.1 trypsin inhibitor units of aprotinin/mL. The homogenate was centrifuged at 20,000×g for 20 minutes. The supernatant was adjusted to pH 5.5. with 6N HOAc and centrifuged at 100,000×g for 1 hour. This supernatant was adjusted to pH 7.0 with 3N KOH and a 35-60% ammonium sulfate fraction taken. The 60% pellet was redissolved in 60 mL of 10 mM potassium phosphate, 10 mM mercaptoethanol, 1 mM EDTA pH 7.0 (Buffer A) and dialyzed against two 1 liter changes of Buffer A. This dialyzed fraction was applied to a 12.5×5 cm column of DEAE-sepharose 4B equilibrated with Buffer A. The column was washed with 700 mL of Buffer A and a 1 liter gradient from Buffer A to 100 mM potassium phosphate, 10 mM mercaptoethanol, 1 mM EDTA pH 7.0. Fractions having a specific activity greater than 0.20 units/mg were combined, solid ammonium sulfate was added to bring to 60% saturation and pelleted. The pellet was dissolved in 8 mL of 10 mM Tris, 10 mM β-mercaptoethanol pH 7.0 (Buffer B). The redissolved pellet was taken to 60% saturation with ammonium sulfate by adding 1.5 volumes of saturated ammonium sulfate in Buffer B. This ammonium sulfate suspension contained 3.5 units/mL with a specific activity of 0.23 units/mg and was free of isopentenyl pyrophosphate isomerase activity. This ammonium sulfate suspension was used for the synthesis of [4-^14 C]farnesyl-pyrophosphate and its activity was stable stored at 4° C. for at least 6 months.
The solvent (ethanol: 0.15N NH4 OH, 1:1) was removed from 55 μCi of [4-^14 C]isopentenyl pyrophosphate(47.9 μCi/μmole) by rotary evaporation. Six hundred microliters of 100 mM Tris, 10 mM MgCl2, 4 mM dithiothreitol pH 7.5 was added and the solution was transferred to a 1.5 ml Eppendorf centrifuge tube. Geranyl-pyrophosphate, 250 μL of a 20 mM solution, and 50 μL of the ammonium sulfate suspension of prenyl transferase were added to initiate the reaction. This incubation contained 5 μmoles of geranyl pyrophosphate, 1.15 μmoles of isopentenyl pyrophosphate, 6 μmoles of MgCl2 of 0.18 units of prenyl transferase in a volume of 900 μL. The incubation was conducted at 37° C. During the incubation, the mix turned cloudy white as the newly formed magnesium complex of farnesyl pyrophosphate precipitated out of solution. […]

| SMILES | IC50 (in absence of PPi) [nM] | IC50 (in presence of 1 mM PPi) [nM] | inhibition at 0.3 µg/mL (in presence of 1 mM PPi) [%] |
| --- | --- | --- | --- |
| COc1cccc(-c2noc(C3CN4CCC3CC4)n2)c1 (centres unmarked) [Compound 28, 3-[3-(3-methoxyphenyl)-1,2,4-oxadiazol-5-yl]-1-azabicyclo[2.2.2]octane] | 2800 | 31 | 99 |
| Cc1ccc2c(c1)c(-c1noc(C3CN4CCC3CC4)n1)cn2C (centres unmarked) [Compound 19, 3-[3-(1,5-dimethyl-1H-indol-3-yl)-1,2,4-oxadiazol-5-yl]-1-azabicyclo[2.2.2]octane] |  | 58 | 96 |
| COc1ccc(-c2noc(C3CN4CCC3CC4)n2)cc1 (centres unmarked) [Compound 30, 3-[3-(4-methoxyphenyl)-1,2,4-oxadiazol-5-yl]-1-azabicyclo[2.2.2]octane] |  |  | 99 |
| c1ccc2c(-c3noc(C4CN5CCC4CC5)n3)cccc2c1 (centres unmarked) [Compound 27, 3-[3-(1-naphthalenyl)-1,2,4-oxadiazol-5-yl]-1-azabicyclo[2.2.2]octane] | 2300 | 11 | 99 |
| c1ccc2ncc(-c3noc(C4CN5CCC4CC5)n3)cc2c1 (centres unmarked) [Compound 36, 3-[3-(3-quinolyl)-1,2,4-oxadiazol-5-yl]-1-azabicyclo[2.2.2]octane] |  | 42 | 97 |
| OC(c1ccccc1)c1noc(C2CN3CCC2CC3)n1 (stereo not drawn) [Compound 7, α-phenyl-5-(1-azabicyclo[2.2.2]oct-3-yl)-1,2,4-oxadiazole-3-methanol] |  |  | 49 |
| CC(=O)OC(c1ccccc1)c1noc(C2CN3CCC2CC3)n1 (centres unmarked) [Compound 6, 3-[3-(1-acetoxy-1-phenylmethyl)-1,2,4-oxadiazol-5-yl]-quinuclidine] |  |  | 70 |
| c1ccc(-c2noc(C3CN4CCC3CC4)n2)cc1 (centres unmarked) [Compound 24, 3-[3-phenyl-1,2,4-oxadiazol-5-yl]-1-azabicyclo[2.2.2]octane] |  | 43 | 98 |
| Oc1ccc(-c2noc(C3CN4CCC3CC4)n2)cc1 (centres unmarked) [Compound 33, 4-[5-(1-azabicyclo[2.2.2]oct-3-yl)-1,2,4-oxadiazol-5-yl]-phenol] |  |  | 84 |
| O=C(c1ccccc1)c1noc(C2CN3CCC2CC3)n1 (centres unmarked) [Compound 37, 3-(3-benzoyl-1,2,4-oxadiazol-5-yl)quinuclidine] |  |  | 64 |
| c1ccc2c(-c3noc(C4CN5CCC4CC5)n3)c[nH]c2c1 (centres unmarked) [Compound 35, 3-[3-(1H-indol-3-yl)-1,2,4-oxadiazol-5-yl]-1-azabicyclo[2.2.2]octane] | 1900 | 23 | 98 |
| COc1ccccc1-c1noc(C2CN3CCC2CC3)n1 (centres unmarked) [Compound 29, 3-[3-(2-methoxyphenyl)-1,2,4-oxadiazol-5-yl]-1-azabicyclo[2.2.2]octane] | 14000 | 250 |  |
| Oc1cccc(-c2noc(C3CN4CCC3CC4)n2)c1 (centres unmarked) [Compound 32, 3-[5-(1-azabicyclo[2.2.2]oct-3-yl)-1,2,4-oxadiazol-5-yl]-phenol] |  |  | 92 |
| Oc1ccccc1-c1noc(C2CN3CCC2CC3)n1 (centres unmarked) [Compound 31, 2-[5-(1-azabicyclo[2.2.2]oct-3-yl)-1,2,4-oxadiazol-5-yl]-phenol] |  |  | 90 |
| OC(c1ccccc1)(c1ccccc1)c1noc(C2CN3CCC2CC3)n1 (centres unmarked) [Compound 34, 3-[3-(1,1-diphenyl-1-hydroxymethyl)-1,2,4-oxadiazol-5-yl]-quinuclidine] |  |  | 60 |
| Cn1cc(-c2noc(C3CN4CCC3CC4)n2)c2ccccc21 (centres unmarked) [Compound 3, 3-[3-(1-methyl-1H-indol-3-yl)-1,2,4-oxadiazol-5-yl]-1-azabicyclo[2.2.2]octane] | 1600 | 28 |  |
| Cn1cc(-c2noc(C3CN4CCC3CC4)n2)c2cc(F)ccc21 (centres unmarked) [Compound 4, 3-[3-(5-fluoro-1-methyl-1H-indol-3-yl)-1,2,4-oxadiazol-5-yl]-1-azabicyclo[2.2.2]octane] |  |  | 97 |
| Cn1c(-c2noc(C3CN4CCC3CC4)n2)cc2ccccc21 (centres unmarked) [Compound 15, 3-[3-(1-methyl-1H-indol-2-yl)-1,2,4-oxadiazol-5-yl]-1-azabicyclo[2.2.2]octane] | 1100 | 20 |  |
| c1cncc(-c2noc(C3CN4CCC3CC4)n2)c1 (centres unmarked) [Compound 26, 3-[3-(3-pyridinyl)-1,2,4-oxadiazol-5-yl]-1-azabicyclo[2.2.2]octane] | > 10000 | 660 |  |
